The values that follow come from patent US7071180B2, “Certain arylaliphatic and heteroaryl-aliphatic piperazinyl pyrazines and their use in the treatment of serotonin-related diseases” (Biovitrum AB, priority 1999, dated 2006).

Broadly, the melting point is the temperature, or range, at which the solid turns liquid. A word on the Ki: it is a dissociation constant, usually derived from enzyme kinetics or from competition with a known ligand. A higher Ki goes with a looser hold on the target.

The target of one series is T1, human 5-HT2c receptor (Homo sapiens, UniProt P28335).
T1 construct: expressed in transfected cells
T1 sequence (P28335 33-458): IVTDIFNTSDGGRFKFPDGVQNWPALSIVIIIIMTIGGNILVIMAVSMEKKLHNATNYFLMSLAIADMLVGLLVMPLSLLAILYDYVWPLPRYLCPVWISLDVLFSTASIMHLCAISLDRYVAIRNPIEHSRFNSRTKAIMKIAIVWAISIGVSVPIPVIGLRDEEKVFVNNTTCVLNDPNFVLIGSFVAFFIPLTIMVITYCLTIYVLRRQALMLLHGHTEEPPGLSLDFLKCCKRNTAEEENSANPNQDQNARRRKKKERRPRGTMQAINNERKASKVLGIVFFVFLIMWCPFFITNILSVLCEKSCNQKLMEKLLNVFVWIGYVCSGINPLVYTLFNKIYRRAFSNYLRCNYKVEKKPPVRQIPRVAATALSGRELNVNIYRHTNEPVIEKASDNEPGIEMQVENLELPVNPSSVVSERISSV
The experiment in a line: 5-HT2c receptor affinity assay (displacement of 3H-labelled 5-HT, Scintillation Proximity Assay). To be noted: displacement of 3H-5-HT from membranes of transfected HEK293 cells expressing human 5-HT2c receptor; non-specific binding 5 μM mianserin. As to the method:
The 5-HT2c receptor affinity of compounds in the Examples was determined in competition experiments, where the ability of each compound in serial dilution to displace ^3H-labelled 5-HT, bound to membranes prepared from a transfected HEK293 cell line stably expressing the human 5-HT2c receptor protein was monitored by Scintillation Proximity Assay technology. Non-specific binding was defined using 5 μM mianserin. Typically, the 5HT2c receptor affinity values (Ki, nM) were in the range of 1 nM to 1500 nM.
(Displacement assays read how much labelled ligand stays bound in the presence of the test substance.)

Structures are written as SMILES. Counter-ions that a name gives are not always drawn.

For the molecule `Nc1cccc2ccc(OCCOc3nccnc3N3CCNCC3)cc12` (as salt: maleate) [Example 145, 7-(2-{[3-(1-piperazinyl)-2-pyrazinyl]oxy}ethoxy)-1-naphthylamine], the melting point was 120 °C (dec.). `c1ccc(OCCOc2nccnc2N2CCNCC2)nc1` (as salt: maleate) [Example 152, 2-(2-Pyridyloxy)ethyl 3-(1-piperazinyl)-2-pyrazinyl ether] returned a melting point of 130 to 132 °C. In turn, `c1ccc2c(OCCOc3nccnc3N3CCNCC3)csc2c1` (as salt: maleate) [Example 156, 2-[2-(1-Benzothien-3-yloxy)ethoxy]-3-(1-piperazinyl)pyrazine] gave a melting point of 147 to 149 °C.

The molecule `CC1(C)Cc2cccc(OCCOc3nccnc3N3CCNCC3)c2O1` (as salt: maleate) [Example 158, 2-(2,3-Dihydro-2,2-dimethyl-7-benzofuranyloxy)ethyl 3-(1-piperazinyl)-2-pyrazinyl ether] had a melting point of 156 to 157 °C. Take `c1cc(OCCOc2nccnc2N2CCNCC2)c2ncoc2c1` (as salt: maleate) [Example 159, 2-(1,3-Benzoxazol-4-yloxy)ethyl 3-(1-piperazinyl)-2-pyrazinyl ether]: the melting point was 191 to 193 °C. The molecule `c1cncc(OCCOc2nc3ccccc3nc2N2CCNCC2)c1` (as salt: maleate) [Example 162, 2-[2-(3-Pyridinyloxy)ethoxy]-3-(1-piperazinyl)quinoxaline] gave a melting point of 137 to 139 °C. The molecule `Fc1cc2nc(OCCOc3cccnc3)c(N3CCNCC3)nc2cc1F` (as salt: maleate) [Example 163, 2-[2-(3-Pyridinyloxy)ethoxy]-3-(1-piperazinyl)-6,7-difluoroquinoxaline] gave a melting point of 110 to 115 °C. Take `Clc1cc2nc(OCCOc3cccnc3)c(N3CCNCC3)nc2cc1Cl` (as salt: maleate) [Example 164, 2-[2-(3-Pyridinyloxy)ethoxy]-3-(1-piperazinyl)-6,7-dichloroquinoxaline]: the melting point lay within 187 to 189 °C.

Take `c1cncc(OCCOc2nc3cscc3nc2N2CCNCC2)c1` (as salt: maleate) [Example 165, 2-[2-(3-Pyridinyloxy)ethoxy]3-(1-piperazinyl)thieno[3,4-b]pyrazine]: the melting point was in the range of 152 to 156 °C. The molecule `c1cc2c(c(OCCOc3nccnc3N3CCNCC3)c1)OCC2` (as salt: maleate) [Example 186, 2-(2,3-Dihydrobenzofuran-7-yloxy)ethyl 3-(1-piperazinyl)-2-pyrazinyl ether] had a melting point of 149 to 154 °C. Still for that read-out and setting: the same measure for `Clc1ccc(OCCOc2nccnc2N2CCNCC2)cn1` (as salt: maleate) [Example 203, 2-{2-[(6-Chloro-3-pyridinyl)oxy]ethoxy}-3-(1-piperazinyl)pyrazine]: 145.9 to 146.3 °C. Consider `COc1ccc(OCCOc2nccnc2N2CCNCC2)cn1` (as salt: maleate) [Example 204, 2-{2-[(6-Methoxy-3-pyridinyl)oxy]ethoxy}-3-(1-piperazinyl)pyrazine], for which the melting point was 151.8 to 152.6 °C.

`c1cncc(OCCOc2nsnc2N2CCNCC2)c1` (as salt: maleate) [Example 209, 1-{4-[2-(3-Pyridinyloxy)ethoxy]-1,2,5-thiadiazol-3-yl}piperazine]: the melting point lay in the range of 116 to 118 °C. On to `COc1ccccc1CCCOc1nccnc1N1CCNCC1` (as salt: maleate) [Example 211, 2-[3-(2-Methoxyphenyl)propoxy]-3-(1-piperazinyl)pyrazine], for which the melting point lay within 132 to 133 °C. For the molecule `COc1ccccc1/C=C/COc1nccnc1N1CCNCC1` (as salt: maleate) [Example 212, 2-{[(2E)-3-(2-Methoxyphenyl)-2-propenyl]oxy}-3-(1-piperazinyl)pyrazine], the melting point is 136 °C (dec.). In the case of `c1ccc2c(c1)CCC(COc1nc3ccccc3nc1N1CCNCC1)O2` (stereo not drawn) (as salt: salt) [Example 168, 2-(3,4-Dihydro-2H-chromen-2-ylmethoxy)-3-(1-piperazinyl)quinoxaline], the melting point fell in the range of 202 to 204 °C.

For `COc1cccc(OCCOc2nccnc2N2CCNCC2)c1` (as salt: toluenesulfonate) [Example 102, 2-[2-(3-Methoxyphenoxy)ethoxy]-3-(1-piperazinyl)pyrazine], the melting point fell in the range of 131 to 133 °C. The same measure, in the same setting: with `Fc1cc(F)cc(OCCOc2nccnc2N2CCNCC2)c1` (as salt: toluenesulfonate) [Example 114, 2-[2-(3,5-Difluorophenoxy)ethoxy]-3-(1-piperazinyl)pyrazine] the figure was 118 to 119 °C. Regarding `NC1CCN(c2nccnc2OCCOc2ccccc2Cl)C1` (stereo not drawn) [Example 23, 2-(2-Chlorophenoxy)ethyl 3-(3-amino-1-pyrrolidinyl)-2-pyrazinyl ether], the affinity on human 5-HT2c receptor corresponds to a Ki of 377 nM. Take `Brc1cccc(OCCOc2nccnc2N2CCNCC2)c1` [Example 37, 2-(3-Bromophenoxy)ethyl 3-(1-piperazinyl)-2-pyrazinyl ether]: the melting point was 62 to 63 °C. On the same count and under the same terms, with `Clc1ccc(OCCOc2nc3ccccc3nc2N2CCNCC2)cc1` [Example 39, 2-[2-(4-Chlorophenoxy)ethoxy]-3-(1-piperazinyl)quinoxaline] the figure was 108 to 112 °C. `COc1cc(OC)cc(OCCOc2nccnc2N2CCNCC2)c1` [Example 57, 2-(3,5-Dimethoxyphenoxy)ethyl 3-(1-piperazinyl)-2-pyrazinyl ether] came in with an inhibition constant (Ki) on human 5-HT2c receptor of 24 nM.

`c1cc(OCCOc2nccnc2N2CCNCC2)c2c(c1)OCCO2` [Example 79, 2-(2,3-Dihydro-1,4-benzodioxin-5-yloxy)ethyl 3-(1-piperazinyl)-2-pyrazinyl ether] displayed a melting point of 98 to 99 °C. In the case of `O=C1CCc2c(OCCOc3nccnc3N3CCNCC3)cccc21` [Example 82, 2-(1-Oxoindanyl-4-yloxy)ethyl 3-(1-piperazinyl)-2-pyrazinyl ether], the Ki on human 5-HT2c receptor worked out at 116 nM. In turn, `Fc1cccc(F)c1OCCOc1nccnc1N1CCNCC1` [Example 83, 2-(2,6-Difluorophenoxy)ethyl 3-(1-piperazinyl)-2-pyrazinyl ether] returned a melting point of 101 to 102 °C. In the case of `FC(F)(F)c1ccccc1OCCOc1nccnc1N1CCNCC1` [Example 91, 2-(2-Trifluoromethylphenoxy)ethyl 3-(1-piperazinyl)-2-pyrazinyl ether], the melting point lay within 79 to 80 °C. Same read-out and setting: with `c1ccc(-c2ccccc2OCCOc2nccnc2N2CCNCC2)cc1` [Example 97, 2-[(1,1′Biphenyl)-2-yloxy]ethyl 3-(1-piperazinyl)-2-pyrazinyl ether] the figure was 101 to 103 °C.

On human 5-HT2c receptor, `c1ccc2oc(COc3nccnc3N3CCNCC3)cc2c1` [Example 122, 2-(Benzofuran-2-ylmethoxy)-3-(1-piperazinyl)pyrazine] returned a Ki of 45 nM.

`c1ccc(CCCOc2nccnc2N2CCNCC2)nc1` [Example 125, 2-(1-piperazinyl)-3-[3-(2-pyridinyl)propoxy]pyrazine] displayed a Ki on human 5-HT2c receptor of 171 nM.

`c1cnc2c(OCCOc3nccnc3N3CCNCC3)cccc2c1` [Example 138, 2-(8-Quinolinyloxy)ethyl 3-(1-piperazinyl)-2-pyrazinyl ether]: the melting point fell in the range of 98 to 100 °C. Same read-out and setting: the same measure for `c1cnc(N2CCNCC2)c(OCCOc2ccc3cc[nH]c3c2)n1` [Example 142, 6-(2-{[3-(1-piperazinyl)-2-pyrazinyl]oxy}ethoxy)-1H-indole]: 111 to 113 °C.

Molecule `O=[N+]([O-])c1ccc2c(c1)OC(COc1nccnc1N1CCNCC1)CO2` (stereo not drawn) [Example 146, 2-(7-Nitro-2,3-dihydro-1,4-benzodioxin-2-ylmethoxy)-3-(1-piperazinyl)pyrazine] showed a melting point of 133 to 135 °C. `c1cncc(OCCOc2nccnc2N2CCNCC2)c1` [Example 150, 2-(3-Pyridyloxy)ethyl 3-(1-piperazinyl)-2-pyrazinyl ether] yielded a Ki on human 5-HT2c receptor of 50 nM. As for `c1cc(OCCOc2nccnc2N2CCNCC2)ccn1` [Example 151, 2-(4-Pyridyloxy)ethyl 3-(1-piperazinyl)-2-pyrazinyl ether], on human 5-HT2c receptor, affinity was put at a Ki of 185 nM. `c1ccc2nc(N3CCNCC3)c(OCCOc3cncnc3)nc2c1` [Example 166, 2-[2-(5-Pyrimidinyloxy)ethoxy]-3-(1-piperazinyl)quinoxaline] registered a melting point of 115 to 117 °C. For `c1ccc2c(c1)NCC(COc1nc3ccccc3nc1N1CCNCC1)O2` (stereo not drawn) [Example 167, 2-(3,4-Dihydro-2H-1,4-benzoxazin-2-ylmethoxy)-3-(1-piperazinyl)quinoxaline], the affinity on human 5-HT2c receptor, expressed as Ki, was 34 nM. On the same count and under the same terms, with `C[C@@H]1CNCCN1c1nccnc1OCCOc1cccnc1` [Example 173, (2R)-Methyl-1-{3-[2-(3-pyridinyloxy)ethoxy]-2-pyrazinyl}piperazine] the figure was 16 nM. On to `CNc1ccc2cccc(OCCOc3nccnc3N3CCNCC3)c2n1` [Example 181, N-Methyl-8-(2-{[3-(1-piperazinyl)-2-pyrazinyl]oxy}ethoxy)-2-quinolinamine], for which the melting point lay in the range of 54 to 56.5 °C. In the case of `Cc1nc(OCCOc2ccccc2)c(N2CCNCC2)nc1C` [Example 183, 5,6-Dimethyl-2-(2-phenoxyethoxy)-3-(1-piperazinyl)pyrazine], the Ki at human 5-HT2c receptor worked out at 10 nM.
